Assay [1] concerns Tyk2 kinase activity on STAT4. Description: pSTAT4 cell assay (MSD, NK92 cells). Type of assay: cell-based. As to conditions: compounds 1 hr, stimulated 15 minutes. The method, then: The inhibitory potency of compounds of the disclosure against the Tyk2 kinase activity on STAT4 was evaluated using an MSD-platform plate-based assay format. NK92 cells natively expressing STAT4 and Tyk2 were serum-starved to reduce background phosphorylation levels, then cells were treated compounds for 1 hr with a 10-point four-fold dilution series starting at 10 μM. Cells were then stimulated with 30 ng/mL IL2 for 15 minutes. Cells were lysed and […] levels were quantitated using an MSD plate-based assay with anti-STAT4 antibodies. The data were normalized and the percent activity versus log concentration of compound were fitted with a 4-parameter logistic model to generate to generate IC50 curves.

In the next assay the target is T1, JH2 domain of human Tyk2 (Homo sapiens, UniProt P29597).
T1 construct: 10×His-tagged TYK2 JH2 domain (amino acid 575-876)
T1 sequence (P29597 575-876): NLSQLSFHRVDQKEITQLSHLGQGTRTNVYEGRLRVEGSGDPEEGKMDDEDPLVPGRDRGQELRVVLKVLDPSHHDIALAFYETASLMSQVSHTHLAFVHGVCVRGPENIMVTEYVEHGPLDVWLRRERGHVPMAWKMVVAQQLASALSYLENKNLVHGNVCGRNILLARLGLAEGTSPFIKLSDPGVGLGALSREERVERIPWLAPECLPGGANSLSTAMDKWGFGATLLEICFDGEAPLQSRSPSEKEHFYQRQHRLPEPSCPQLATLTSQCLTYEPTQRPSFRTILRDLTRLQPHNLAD
Put plainly: JH2 biochemical assay (TR-FRET probe displacement). The assay is classed as binding. As to conditions: JH2 biochemical assay. The method, then: The inhibitory potency of compounds of the disclosure against the kinase activity of recombinantly generated JH2 domain of human Tyk2 was evaluated in a plate-based assay using a TR-FRET assay platform. Briefly, 2 nM of recombinant JH2 domain [10×His-tagged TYK2 JH2 domain (amino acid 575-876)] was combined with 2 nM probe ((S)-6-amino-9-(2-carboxy-4-((1-(3-(8-methyl-5-(methylamino)-8H-imidazo[4,5-d]thiazolo[5,4-b]pyridin-2-yl)phenyl)ethyl)carbamoyl)phenyl)-3-iminio-5-sulfo-3H-xanthene-4-sulfonate), 0.1 nM Tb-labeled anti-His antibody, and compounds of disclosure for 60 minutes. Compounds are tested at either […] top concentration, 10 points of 3-fold dilution. The TR-FRET signal […] by compounds and signal was calculated by taking the ratio of fluorescence at 520 nm and 495 nm. The data was normalized and the percent activity versus log concentration of compound was fitted with a 4-parameter logistic model to generate IC50 curves.
(In general: Time-resolved FRET reads energy transfer from a long-lived donor to a nearby acceptor.)

Structures can show the parent of a compound that is named as a salt.

One may read the IC50 as the midpoint of a concentration-inhibition curve. Low readings indicate greater potency, high ones weaker potency. Turning to `CC(=O)Nc1cc2c(cn1)C1(CC1)CN2c1cc([C@@H]2C[C@H]2C#N)nc(C(C)(F)F)n1` (racemic) [Example 72, trans-rac-N-(1′-(6-(2-cyanocyclopropyl)-2-(1,1-difluoroethyl)pyrimidin-4-yl)-1′,2′-dihydrospiro[cyclopropane-1,3′-pyrrolo[3,2-c]pyridin]-6′-yl)acetamide or cis-rac-N-(1′-(6-(2-cyanocyclopropyl)-2-(1,1-difluoroethyl)pyrimidin-4-yl)-1′,2′-dihydrospiro[cyclopropane-1,3′-pyrrolo[3,2-c]pyridin]-6′-yl)acetamide], the IC50 in assay [1] is 100 to 1000 nM; on JH2 domain of human Tyk2 it was at most 10 nM. On the same counts, the results for `CC(=O)Nc1cc2c(cn1)C1(CC1)CN2c1cc([C@@H]2C[C@@H]2C#N)nc(C(C)(F)F)n1` (racemic) [Example 73, cis-rac-N-(1′-(6-(2-cyanocyclopropyl)-2-(1,1-difluoroethyl)pyrimidin-4-yl)-1′,2′-dihydrospiro[cyclopropane-1,3′-pyrrolo[3,2-c]pyridin]-6′-yl)acetamide or trans-rac-N-(1′-(6-(2-cyanocyclopropyl)-2-(1,1-difluoroethyl)pyrimidin-4-yl)-1′,2′-dihydrospiro[cyclopropane-1,3′-pyrrolo[3,2-c]pyridin]-6′-yl)acetamide] are 10 to 100 nM and at most 10 nM. With `COCCOc1cc(N2CC3(CC3)c3cnc(NC(C)=O)cc32)nc(C(C)(F)F)n1` [Example 4, N-(1′-(2-(1,1-difluoroethyl)-6-(2-methoxyethoxy)pyrimidin-4-yl)-1′,2′-dihydrospiro[cyclopropane-1,3′-pyrrolo[3,2-c]pyridin]-6′-yl)acetamide], the concentration for half-maximal inhibition (IC50) is 100 to 1000 nM in assay [1] and at most 10 nM on JH2 domain of human Tyk2. Consider `COC1CC(Oc2cc(N3CC4(CC4)c4cnc(NC(C)=O)cc43)nc(C(C)(F)F)n2)C1` (stereo not drawn) [Example 5, N-(1′-(2-(1,1-difluoroethyl)-6-(3-methoxycyclobutoxy)pyrimidin-4-yl)-1′,2′-dihydrospiro[cyclopropane-1,3′-pyrrolo[3,2-c]pyridin]-6′-yl)acetamide], for which the IC50 in assay [1] was 10 to 100 nM; at JH2 domain of human Tyk2 it was at most 10 nM. Take `CC(=O)Nc1cc2c(cn1)C1(CC1)CN2c1cc(OC2CC2)nc(C(C)(F)F)n1` [Example 6, N-(1′-(6-cyclopropoxy-2-(1,1-difluoroethyl)pyrimidin-4-yl)-1′,2′-dihydrospiro[cyclopropane-1,3′-pyrrolo[3,2-c]pyridin]-6′-yl)acetamide]: the IC50 was 10 to 100 nM in assay [1] and at most 10 nM at JH2 domain of human Tyk2. For `CC(=O)Nc1cc2c(cn1)C1(CC1)CN2c1ccc(F)c(C(C)(F)F)n1` [Example 7, N-(1′-(6-(1,1-difluoroethyl)-5-fluoropyridin-2-yl)-1′,2′-dihydrospiro[cyclopropane-1,3′-pyrrolo[3,2-c]pyridin]-6′-yl)acetamide] the same measures were 100 to 1000 nM and at most 10 nM. With `COc1ccc(N2CC3(CC3)c3cnc(NC(C)=O)cc32)nc1C(C)(F)F` [Example 8, N-(1′-(6-(1,1-difluoroethyl)-5-methoxypyridin-2-yl)-1′,2′-dihydrospiro[cyclopropane-1,3′-pyrrolo[3,2-c]pyridin]-6′-yl)acetamide], the IC50 in assay [1] is 100 to 1000 nM; at JH2 domain of human Tyk2, at most 10 nM. For `CC(=O)Nc1cc2c(cn1)C1(CC1)CN2c1cc(N(C)C)nc(C(C)(F)F)n1` [Example 20, N-(1′-(2-(1,1-difluoroethyl)-6-(dimethylamino)pyrimidin-4-yl)-1′,2′-dihydrospiro[cyclopropane-1,3′-pyrrolo[3,2-c]pyridin]-6′-yl)acetamide] the same measures were 100 to 1000 nM and at most 10 nM.

`CC(=O)Nc1cc2c(cn1)C1(CC1)CN2c1cc(OCC2(C)COC2)nc(C(C)(F)F)n1` [Example 139, N-(1′-(2-(1,1-difluoroethyl)-6-((3-methyloxetan-3-yl)methoxy)pyrimidin-4-yl)-1′,2′-dihydrospiro[cyclopropane-1,3′-pyrrolo[3,2-c]pyridin]-6′-yl)acetamide trifluoroacetate] gave a concentration for half-maximal inhibition (IC50) in assay [1] of at least 1000 nM. `CC(=O)Nc1cc2c(cn1)C1(CC1)CN2c1cc(Oc2cnccn2)nc(C(C)(F)F)n1` [Example 146, N-(1′-(2-(1,1-difluoroethyl)-6-(pyrazin-2-yloxy)pyrimidin-4-yl)-1′,2′-dihydrospiro[cyclopropane-1,3′-pyrrolo[3,2-c]pyridin]-6′-yl)acetamide] came in with an IC50 in assay [1] of at least 1000 nM. Same read-out and setting: then `CC(=O)Nc1cc2c(cn1)C1(CC1)CN2c1cc(Oc2ccnnc2)nc(C(C)(F)F)n1` [Example 147, N-(1′-(2-(1,1-difluoroethyl)-6-(pyridazin-4-yloxy)pyrimidin-4-yl)-1′,2′-dihydrospiro[cyclopropane-1,3′-pyrrolo[3,2-c]pyridin]-6′-yl)acetamide trifluoroacetate], with at least 1000 nM; and `CC(=O)Nc1cc2c(cn1)C1(CC1)CN2c1cc(NC23CC(C2)C3)nc(C(C)(F)F)n1` [Example 159, N-(1′-(6-(bicyclo[1.1.1]pentan-1-ylamino)-2-(1,1-difluoroethyl)pyrimidin-4-yl)-1′,2′-dihydrospiro[cyclopropane-1,3′-pyrrolo[3,2-c]pyridin]-6′-yl)acetamide trifluoroacetate], with 10 to 100 nM; and `CC(=O)Nc1cc2c(cn1)C1(CC1)CN2c1cc(C)nc(N2CCC(N(C)C)C2)n1` (stereo not drawn) [Example 215, N-(1′-(2-(3-(dimethylamino)pyrrolidin-1-yl)-6-methylpyrimidin-4-yl)-1′,2′-dihydrospiro[cyclopropane-1,3′-pyrrolo[3,2-c]pyridin]-6′-yl)acetamide], with at least 1000 nM. Still for that read-out and setting: then `CC(=O)Nc1cc2c(cn1)C1(CC1)CN2c1cc(C)nc(-c2cnn(C3CCC3)c2)n1` [Example 246, N-(1′-(2-(1-cyclobutyl-1H-pyrazol-4-yl)-6-methylpyrimidin-4-yl)-1′,2′-dihydrospiro[cyclopropane-1,3′-pyrrolo[3,2-c]pyridin]-6′-yl)acetamide], with at least 1000 nM; and `CC(=O)Nc1cc2c(cn1)C1(CC1)CN2c1cc(C)nc(-c2cc[nH]n2)n1` [Example 252, N-(1′-(6-methyl-2-(1H-pyrazol-3-yl)pyrimidin-4-yl)-1′,2′-dihydrospiro[cyclopropane-1,3′-pyrrolo[3,2-c]pyridin]-6′-yl)acetamide trifluoroacetate], with 100 to 1000 nM; and `CC(=O)Nc1cc2c(cn1)C1(CC1)CN2c1cc(C)nc(-c2cnc(C)s2)n1` [Example 255, N-(1′-(6-methyl-2-(2-methylthiazol-5-yl)pyrimidin-4-yl)-1′,2′-dihydrospiro[cyclopropane-1,3′-pyrrolo[3,2-c]pyridin]-6′-yl)acetamide trifluoroacetate], with at least 1000 nM. Turning to `CC(=O)Nc1cc2c(cn1)C1(CC1)CN2c1cc(CCCO)nc(C(C)(F)F)n1` [Example 295, N-(1′-(2-(1,1-difluoroethyl)-6-(3-hydroxypropyl)pyrimidin-4-yl)-1′,2′-dihydrospiro[cyclopropane-1,3′-pyrrolo[3,2-c]pyridin]-6′-yl)acetamide], in assay [1], the IC50 lay in the range of 10 to 100 nM.

Take `CC(=O)Nc1cc2c(cn1)C1(CC1)CN2c1cc(C(C)C#N)nc(C(C)(F)F)n1` (stereo not drawn) [Example 302, N-(1′-(6-(1-cyanoethyl)-2-(1,1-difluoroethyl)pyrimidin-4-yl)-1′,2′-dihydrospiro[cyclopropane-1,3′-pyrrolo[3,2-c]pyridin]-6′-yl)acetamide]: the IC50 in assay [1] was 100 to 1000 nM. With `COCCOc1nc(C)cc(N2CC3(CC3)c3cnc(NC(C)=O)cc32)n1` [Example 360, N-(1′-(2-(2-methoxyethoxy)-6-methylpyrimidin-4-yl)-1′,2′-dihydrospiro[cyclopropane-1,3′-pyrrolo[3,2-c]pyridin]-6′-yl)acetamide trifluoroacetate], the half-maximal inhibitory concentration (IC50) in assay [1] was at least 1000 nM. On the same count and under the same terms, then `CC(=O)Nc1cc2c(cn1)C1(CC1)CN2c1cc(C)nc(OC(C)C)n1` [Example 362, N-(1′-(2-isopropoxy-6-methylpyrimidin-4-yl)-1′,2′-dihydrospiro[cyclopropane-1,3′-pyrrolo[3,2-c]pyridin]-6′-yl)acetamide trifluoroacetate], with 100 to 1000 nM; and `CC(=O)Nc1cc2c(cn1)C1(CC1)CN2c1cc(C)nc(OC2(C)COC2)n1` [Example 365, N-(1′-(6-methyl-2-((3-methyloxetan-3-yl)oxy)pyrimidin-4-yl)-1′,2′-dihydrospiro[cyclopropane-1,3′-pyrrolo[3,2-c]pyridin]-6′-yl)acetamide], with 100 to 1000 nM.

In assay [1], `CC(=O)Nc1cc2c(cn1)C1(CC1)CN2c1cc(C)nc(OCC2COC2)n1` [Example 366, N-(1′-(6-methyl-2-(oxetan-3-ylmethoxy)pyrimidin-4-yl)-1′,2′-dihydrospiro[cyclopropane-1,3′-pyrrolo[3,2-c]pyridin]-6′-yl)acetamide trifluoroacetate] yielded a concentration for half-maximal inhibition (IC50) of 100 to 1000 nM.
